Calls of active or inactive are those of the source.
What was measured:
Cytochrome P450 2C19 = Cytochrome P450 2C19 (Homo sapiens, UniProt P33261); experiment: Cytochrome panel assay with activity outcomes. Panel member name: p450-cyp2c19 Compounds with AC50 equal or less than 10 uM are considered active; assay type: functional; details: read-out: AC50
[1] = molecular target: 1-phosphatidylinositol 4,5-bisphosphate phosphodiesterase beta-3 (Homo sapiens, UniProt Q01970); experiment: Fluorescence-based biochemical high throughput dose response assay to identify inhibitors of phospholipase C isozymes (PLC-B3).
1-phosphatidylinositol 4,5-bisphosphate phosphodiesterase beta-3, sequence (Q01970 whole entry): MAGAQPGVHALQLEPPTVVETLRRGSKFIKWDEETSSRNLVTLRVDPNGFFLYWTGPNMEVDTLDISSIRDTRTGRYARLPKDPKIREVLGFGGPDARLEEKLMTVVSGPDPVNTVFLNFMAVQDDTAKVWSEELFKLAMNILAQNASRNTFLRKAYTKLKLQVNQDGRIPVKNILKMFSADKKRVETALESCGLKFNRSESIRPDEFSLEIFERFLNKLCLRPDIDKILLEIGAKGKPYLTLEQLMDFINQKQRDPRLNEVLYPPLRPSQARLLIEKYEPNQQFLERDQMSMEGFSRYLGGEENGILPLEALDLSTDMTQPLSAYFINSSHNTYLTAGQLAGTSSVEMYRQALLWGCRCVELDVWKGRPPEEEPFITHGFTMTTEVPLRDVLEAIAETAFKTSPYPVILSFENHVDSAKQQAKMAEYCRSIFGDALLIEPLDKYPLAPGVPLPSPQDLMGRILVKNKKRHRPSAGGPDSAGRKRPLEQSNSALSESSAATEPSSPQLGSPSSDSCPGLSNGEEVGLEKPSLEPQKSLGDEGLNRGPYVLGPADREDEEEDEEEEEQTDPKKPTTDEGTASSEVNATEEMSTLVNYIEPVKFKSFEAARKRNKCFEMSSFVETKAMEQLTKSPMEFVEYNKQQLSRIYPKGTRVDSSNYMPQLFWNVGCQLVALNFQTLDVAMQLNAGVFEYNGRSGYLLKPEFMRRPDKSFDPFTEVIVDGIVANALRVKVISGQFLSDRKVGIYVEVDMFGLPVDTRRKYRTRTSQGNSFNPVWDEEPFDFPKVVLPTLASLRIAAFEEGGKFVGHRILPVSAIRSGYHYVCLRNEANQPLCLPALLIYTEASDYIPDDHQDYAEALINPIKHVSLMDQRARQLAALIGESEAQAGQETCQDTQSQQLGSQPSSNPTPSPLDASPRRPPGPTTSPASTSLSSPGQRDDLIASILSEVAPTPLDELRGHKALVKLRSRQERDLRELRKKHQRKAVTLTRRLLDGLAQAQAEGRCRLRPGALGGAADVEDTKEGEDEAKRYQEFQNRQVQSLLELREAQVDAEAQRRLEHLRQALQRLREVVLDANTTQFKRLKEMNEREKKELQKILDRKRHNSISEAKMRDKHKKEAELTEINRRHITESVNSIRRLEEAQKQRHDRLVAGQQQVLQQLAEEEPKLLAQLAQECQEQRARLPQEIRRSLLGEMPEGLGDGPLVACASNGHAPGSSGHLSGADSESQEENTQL

[2] = molecular target: 1-phosphatidylinositol 4,5-bisphosphate phosphodiesterase gamma-1 (Homo sapiens, UniProt P19174); experiment: Counterscreen for inhibitors of phospholipase C isozymes (PLC-B3): Fluorescence-based biochemical high throughput dose response assay to identify inhibitors of phospholipase C isozymes (PLC-gamma1).
1-phosphatidylinositol 4,5-bisphosphate phosphodiesterase gamma-1, sequence (P19174 whole entry): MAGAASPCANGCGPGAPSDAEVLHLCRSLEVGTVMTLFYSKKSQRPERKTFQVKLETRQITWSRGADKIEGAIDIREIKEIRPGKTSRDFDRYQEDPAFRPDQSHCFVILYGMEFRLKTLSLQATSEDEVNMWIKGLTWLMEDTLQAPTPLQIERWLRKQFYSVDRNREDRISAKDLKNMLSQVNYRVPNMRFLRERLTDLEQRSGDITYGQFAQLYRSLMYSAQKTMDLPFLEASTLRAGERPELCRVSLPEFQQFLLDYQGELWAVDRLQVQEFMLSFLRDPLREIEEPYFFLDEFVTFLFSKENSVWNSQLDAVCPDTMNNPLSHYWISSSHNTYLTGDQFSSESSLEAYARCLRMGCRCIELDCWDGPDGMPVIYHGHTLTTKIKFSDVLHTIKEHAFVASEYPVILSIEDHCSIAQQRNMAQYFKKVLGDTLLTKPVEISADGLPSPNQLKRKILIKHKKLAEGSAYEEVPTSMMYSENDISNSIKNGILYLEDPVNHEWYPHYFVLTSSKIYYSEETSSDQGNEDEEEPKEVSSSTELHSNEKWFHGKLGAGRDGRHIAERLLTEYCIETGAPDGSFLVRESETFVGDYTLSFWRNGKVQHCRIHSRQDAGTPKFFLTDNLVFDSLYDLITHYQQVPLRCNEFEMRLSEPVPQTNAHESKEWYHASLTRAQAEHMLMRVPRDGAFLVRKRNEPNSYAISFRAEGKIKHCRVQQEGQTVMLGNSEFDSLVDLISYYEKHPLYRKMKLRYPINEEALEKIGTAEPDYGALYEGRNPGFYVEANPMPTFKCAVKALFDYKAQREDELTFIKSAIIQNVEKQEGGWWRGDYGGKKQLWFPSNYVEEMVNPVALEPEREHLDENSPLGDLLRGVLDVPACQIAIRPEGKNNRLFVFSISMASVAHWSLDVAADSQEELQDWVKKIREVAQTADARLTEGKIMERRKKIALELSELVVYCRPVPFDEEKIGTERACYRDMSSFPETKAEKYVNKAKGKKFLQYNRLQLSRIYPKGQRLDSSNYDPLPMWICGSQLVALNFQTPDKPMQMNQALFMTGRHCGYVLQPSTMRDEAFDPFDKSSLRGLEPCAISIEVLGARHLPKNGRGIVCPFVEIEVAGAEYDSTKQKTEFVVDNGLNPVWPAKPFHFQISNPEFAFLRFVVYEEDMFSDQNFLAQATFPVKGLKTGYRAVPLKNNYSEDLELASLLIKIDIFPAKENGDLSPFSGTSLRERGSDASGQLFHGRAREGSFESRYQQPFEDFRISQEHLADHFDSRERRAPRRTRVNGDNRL

Cytochrome P450 2C9 = Cytochrome P450 2C9 (Homo sapiens, UniProt P11712)
Cytochrome P450 2C9, sequence (P11712 whole entry): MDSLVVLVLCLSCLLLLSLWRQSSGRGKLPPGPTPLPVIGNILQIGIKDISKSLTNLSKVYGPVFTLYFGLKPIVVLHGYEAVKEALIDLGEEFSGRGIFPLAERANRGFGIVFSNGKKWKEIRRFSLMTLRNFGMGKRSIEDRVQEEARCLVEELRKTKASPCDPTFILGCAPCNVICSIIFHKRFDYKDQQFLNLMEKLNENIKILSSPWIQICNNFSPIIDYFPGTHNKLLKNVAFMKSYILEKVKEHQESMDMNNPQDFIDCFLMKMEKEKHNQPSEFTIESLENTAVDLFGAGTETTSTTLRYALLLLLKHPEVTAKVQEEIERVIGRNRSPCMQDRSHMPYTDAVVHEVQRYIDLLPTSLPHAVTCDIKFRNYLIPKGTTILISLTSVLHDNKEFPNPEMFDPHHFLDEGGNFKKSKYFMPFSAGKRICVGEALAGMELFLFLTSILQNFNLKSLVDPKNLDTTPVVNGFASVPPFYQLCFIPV

Cytochrome P450 2D6 = Cytochrome P450 2D6 (Homo sapiens, UniProt P10635);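 also: CYP2D6 member of a cytochrome P450 panel assay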
Cytochrome P450 2D6, sequence (P10635 whole entry): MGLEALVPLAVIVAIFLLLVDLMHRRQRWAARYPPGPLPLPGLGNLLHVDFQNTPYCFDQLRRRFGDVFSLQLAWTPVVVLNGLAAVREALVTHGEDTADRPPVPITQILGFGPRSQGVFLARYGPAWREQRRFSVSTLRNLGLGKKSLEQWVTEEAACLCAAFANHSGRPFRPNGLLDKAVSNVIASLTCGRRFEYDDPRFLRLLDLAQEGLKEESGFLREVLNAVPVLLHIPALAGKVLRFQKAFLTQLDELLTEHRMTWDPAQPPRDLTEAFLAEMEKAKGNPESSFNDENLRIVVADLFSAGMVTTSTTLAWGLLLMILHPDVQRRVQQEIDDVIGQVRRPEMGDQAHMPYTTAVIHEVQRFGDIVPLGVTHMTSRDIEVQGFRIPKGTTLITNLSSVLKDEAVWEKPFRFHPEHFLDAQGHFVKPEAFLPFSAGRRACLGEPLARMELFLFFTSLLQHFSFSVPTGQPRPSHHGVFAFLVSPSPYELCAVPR

[3] = viability loss in Vero cells – cytotoxicity control for Vif-APOBEC3G degradation inhibitor project, dose response (AID 1117358); assay type: functional; details: Vero
[4] = molecular target: Glutathione-S-transferase (Schistosoma japonicum, UniProt Q26513); experiment: GST-antibody interaction or FRET quenching – biochemical, TR-FRET, artefact control for Vif-APOBEC3G degradation inhibitor project, dose response (AID 1117362); assay type: functional
Glutathione-S-transferase, sequence (Q26513 whole entry): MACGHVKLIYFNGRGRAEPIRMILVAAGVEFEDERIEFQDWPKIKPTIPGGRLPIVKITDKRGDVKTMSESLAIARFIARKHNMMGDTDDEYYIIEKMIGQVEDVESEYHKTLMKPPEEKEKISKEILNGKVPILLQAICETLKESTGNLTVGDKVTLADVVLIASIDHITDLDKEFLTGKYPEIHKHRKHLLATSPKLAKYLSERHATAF

Protein Tat = Protein Tat (Human immunodeficiency virus type 1 group M subtype B (isolate HXB2)(HIV-1), UniProt P04608); assay type: functional;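 also: tat binding to TAR RNA read out by fluorescence polarization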
Protein Tat, sequence (P04608 whole entry, the tested form may be a part): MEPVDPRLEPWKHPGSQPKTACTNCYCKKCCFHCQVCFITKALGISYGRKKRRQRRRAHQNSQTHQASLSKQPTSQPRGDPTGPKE

[5] = molecular target: T1, Oxysterols receptor LXR-beta (Homo sapiens, UniProt P55055); assay type: functional, cell-based;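 also: Cell-based luminescence dose-response assay of agonist activity at LXR, run as a confirmatory counterscreen to a daf-12 agonist screen; HEK293 cells with Gal4-LXR fusion and GAL4-driven luciferase reporter; agonist potency from rising luciferase signal of a Gal4-LXR reporter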
T1 sequence (P55055 whole entry): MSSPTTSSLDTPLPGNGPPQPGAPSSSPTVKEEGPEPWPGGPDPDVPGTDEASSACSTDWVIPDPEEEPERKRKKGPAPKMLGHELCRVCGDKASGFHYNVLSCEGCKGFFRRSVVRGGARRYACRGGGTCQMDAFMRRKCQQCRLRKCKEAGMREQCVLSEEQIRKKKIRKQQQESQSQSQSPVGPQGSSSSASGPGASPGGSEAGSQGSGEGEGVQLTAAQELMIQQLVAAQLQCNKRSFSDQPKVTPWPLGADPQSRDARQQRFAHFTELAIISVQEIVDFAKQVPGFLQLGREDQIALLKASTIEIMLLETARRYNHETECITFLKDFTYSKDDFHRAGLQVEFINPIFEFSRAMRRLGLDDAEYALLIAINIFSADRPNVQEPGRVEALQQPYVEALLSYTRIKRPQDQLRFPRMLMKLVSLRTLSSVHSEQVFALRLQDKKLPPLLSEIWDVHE

cells [6] = experiment: cells
[7] = toxicity toward HepG2 liver cells – cell-based, plate reader, cherry-pick, antagonist series, cytotoxicity control, dose response (AID 743416); assay type: functional
[8] = general cell-killing toxicity readout – plate reader, dry powder samples, cytotoxicity control for PAX8 inhibitor project, dose response (AID 743021); assay type: functional, cell-based
[9] = viability loss in HEK293 cells – cell-based, plate reader, cherry-picked samples, cytotoxicity control, dose response (AID 743446); assay type: functional
[10] = HEK-293T viability loss after treatment – luminescence, T-cell screen hits, cytotoxicity control for TCR NF-kB inhibitor project, dose response (AID 489026); assay type: functional, cell-based;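 also: cells exposed to compound about 14 hours before the viability readout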
[11] = blockers of bursicon-stimulated LGR2 cAMP reporter – cell-based, HEK293, CRE-luciferase reporter, cherry pick, set 2, dose response (AID 743343); assay type: functional;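 also: transfected cells were stimulated with diluted bursicon conditioned medium after compound addition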
[12] = blockade of melanocortin 4 receptor signaling – cell-based, plate reader, cherry pick, counter-screen for LGR2 antagonist project, dose response (AID 743444); assay type: functional;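 also: transfected HEK 293 cells stimulated with alpha-MSH peptide; potency of inhibitors of the alpha-MSH evoked signal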
[13] = A549 cell cytotoxicity, dose response, cytotoxicity control, plate reader, cherry-pick, antagonist series (AID 743412); assay type: functional, cell-based
Paired box protein Pax-8 = Paired box protein Pax-8 (Homo sapiens, UniProt Q06710); experiment: PAX8 transcriptional activity inhibition in RMG-I – RMG-I cells, luciferase, cherry-pick, dose response (AID 687027); assay type: functional, cell-based;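 also: luciferase reporter driven by Pax8 target thyroperoxidase promoter measured by SteadyGlo luminescence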
Paired box protein Pax-8, sequence (Q06710 whole entry): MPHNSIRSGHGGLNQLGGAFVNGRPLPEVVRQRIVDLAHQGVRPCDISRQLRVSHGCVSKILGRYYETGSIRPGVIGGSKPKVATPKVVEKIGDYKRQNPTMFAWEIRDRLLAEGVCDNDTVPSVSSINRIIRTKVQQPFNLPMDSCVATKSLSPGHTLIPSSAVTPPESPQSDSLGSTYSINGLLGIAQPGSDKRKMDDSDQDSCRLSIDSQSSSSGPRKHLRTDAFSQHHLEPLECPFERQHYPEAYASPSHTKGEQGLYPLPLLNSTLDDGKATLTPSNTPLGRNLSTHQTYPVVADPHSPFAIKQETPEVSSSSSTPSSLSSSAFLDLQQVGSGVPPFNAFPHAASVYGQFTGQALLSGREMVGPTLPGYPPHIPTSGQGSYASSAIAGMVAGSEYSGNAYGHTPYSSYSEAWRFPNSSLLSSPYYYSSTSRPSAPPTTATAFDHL

[14] = Vero E6 cell cytotoxicity, dose response, cytotoxicity control for non-replicating M. tuberculosis project, secondary assay (AID 492998); assay type: functional, VeroE6; details: Vero C1008
Streptokinase A = molecular target: T2, Streptokinase A (Streptococcus pyogenes serotype M1, UniProt P10520); experiment: viability-normalized secreted streptokinase activity reduction – plasminogen activation absorbance, OD405, dose response (AID 1914); assay type: functional, Streptococcus pyogenes M1 GAS;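 also: secreted streptokinase activity via plasminogen activation per viability signal from cell pellet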
T2 sequence (P10520 whole entry): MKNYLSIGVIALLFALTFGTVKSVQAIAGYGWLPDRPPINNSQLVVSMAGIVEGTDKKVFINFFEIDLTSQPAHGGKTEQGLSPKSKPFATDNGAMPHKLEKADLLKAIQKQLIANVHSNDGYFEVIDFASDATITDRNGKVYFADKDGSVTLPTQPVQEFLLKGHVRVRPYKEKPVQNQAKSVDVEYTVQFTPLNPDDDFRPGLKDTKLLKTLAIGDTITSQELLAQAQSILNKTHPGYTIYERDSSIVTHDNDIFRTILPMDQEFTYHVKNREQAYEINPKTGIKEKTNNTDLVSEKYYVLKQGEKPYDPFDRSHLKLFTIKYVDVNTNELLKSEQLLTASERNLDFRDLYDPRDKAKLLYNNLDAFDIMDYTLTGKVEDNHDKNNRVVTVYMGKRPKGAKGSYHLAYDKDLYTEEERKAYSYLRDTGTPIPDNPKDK

[15] = tested on: Streptococcus sp. 'group A'; experiment: Streptococcus pyogenes SK(-)GAS viability under kanamycin – luminescence, BacTiterGlo, confirmation, counter-screen for streptokinase expression inhibitor project, dose response (AID 1900); assay type: functional, organism-based
INS1 = experiment: INS-1E survival protection against cytokine death – cell-based, luminescence, retest, dose response (AID 449756); assay type: functional; details: Rattus norvegicus;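 also: cell death triggered by IL-1 beta plus TNF-alpha plus IFN-gamma mixture; protective hits raise ATP signal compared with cytokine alone wells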
Streptococcus = experiment: GAS UMAA2166 growth inhibition – luminescence, BacTiterGlo, counter-screen for streptokinase expression inhibitor project, dose response (AID 1915); assay type: functional, organism-based;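 also: potency for reduction of bacterial viability or growth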
[16] = IC50 of Artemis nuclease activity blockers – biochemical, fluorescence intensity, dose response (AID 720701); assay type: functional;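 also: Artemis endonuclease enzyme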
cells [17] = assay type: functional
[18] = THP-1 cell cytotoxicity, dose response, cytotoxicity control for non-replicating M. tuberculosis project (AID 489025); assay type: functional

Cytochrome P450 2C19, sequence (P33261 whole entry): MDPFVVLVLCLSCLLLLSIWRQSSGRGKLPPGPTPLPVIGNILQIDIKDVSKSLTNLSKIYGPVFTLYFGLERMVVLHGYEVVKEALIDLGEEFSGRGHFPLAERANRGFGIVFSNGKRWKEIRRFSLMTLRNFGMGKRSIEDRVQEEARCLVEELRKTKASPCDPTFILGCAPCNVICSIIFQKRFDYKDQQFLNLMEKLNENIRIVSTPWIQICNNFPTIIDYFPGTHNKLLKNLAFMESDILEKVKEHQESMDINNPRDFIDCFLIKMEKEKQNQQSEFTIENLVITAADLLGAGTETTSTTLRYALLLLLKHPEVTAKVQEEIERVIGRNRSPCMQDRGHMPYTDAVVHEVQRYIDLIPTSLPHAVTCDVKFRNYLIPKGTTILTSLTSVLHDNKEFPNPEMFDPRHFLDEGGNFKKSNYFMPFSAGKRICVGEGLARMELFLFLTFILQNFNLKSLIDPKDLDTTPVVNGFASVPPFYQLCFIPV

## O=C(Nc1cccc2ccccc12)c1ccccc1
Cytochrome P450 2C19
  AC50: 2.51 µM (inconclusive)
[1]
  IC50: > 123 µM (inactive)
[2]
  IC50: > 123 µM (inactive)
Cytochrome P450 2C9
  AC50: inconclusive
Cytochrome P450 2D6
  AC50: 0.00251 µM (inconclusive)

## CCCCn1cnc2cc(NCc3ccncc3)ccc21
[3]
  CC50: > 40 µM (active)
[4]
  IC50: > 100 µM (active)
Protein Tat
  IC50: > 100 µM (active)

## Cc1ccnc(NC(=O)Nc2cccc(F)c2)c1
[5]
  EC50: > 67.5 µM (inactive)
Cells [6]
  EC50: > 67.5 µM (inactive)

## c1cc2c(cc1C1=NN=C(NC3CC3)SC1)OCCO2
[7]
  AC50: 6.46 µM (active)
[8]
  AC50: 7.92 µM (active)
[9]
  AC50: 4.07 µM (active)
[10]
  IC50: > 80 µM (inactive)
[11]
  AC50: 0.276 µM (active)
[12]
  AC50: 0.251 µM (active)
[13]
  AC50: 5.39 µM (active)
Paired box protein Pax-8
  AC50: 2.14 µM (active)

## Cc1noc(/C=C/c2ccco2)c1S(=O)(=O)N1CCC(C(=O)NCc2ccco2)CC1
[3]
  CC50: > 40 µM (active)

## Cc1cc(C)n(-c2nc(NCCCO)c3c4c(sc3n2)CCCC4)n1
[14]
  CC50: > 20 µM (active)
Streptokinase A
  EC50: > 150 µM (not active)
[15]
  EC50: 25.9 µM (active)
INS1
  AC50: 5.71 µM (active)
Streptococcus
  EC50: > 150 µM (not active)
[16]
  IC50: 17.9 µM (active)
Cells [17]
  IC50: 5.54 µM (active)
[18]
  CC50: 38.6 µM (active)

## CC(C)c1ccc(C=NNc2ccc([N+](=O)[O-])cn2)cc1
[5]
  EC50: > 67.6 µM (inactive)
Cells [6]
  EC50: > 67.6 µM (inactive)

Source: ChEMBL document CHEMBL1201862, “PubChem BioAssay data set” (2004)
